# From patent publication US11691992B2 (Anacor Pharmaceuticals, Inc., priority 2017, dated 2023)
# pIC50: −log10 of the molar value. Like-named read-outs stand apart in the source and are kept apart here.
# Experiments:
# Assay type in all cases: cell-based
# [1] = tested on: bloodstream forms of T. b. rhodesiense STIB 900; experiment: T. brucei rhodesiense STIB 900 growth inhibition assay; conditions: Trypanosoma brucei, 72 h; for pIC50: bloodstream forms, Alamar Blue, protocol of Example 110, read-out: IC50: I Org. Growth T. brucei rhodesiense STIB 900, 3 d; for IC50: read-out: IC50: I Org. Growth T. brucei rhodesiense STIB 900, 3 d [uM]
# Summary of the method: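 Bloodstream-form STIB 900 (10^4/well) were cultured in supplemented MEM with 15% horse serum and compound (90 to 0.123 μg/ml, 3-fold steps) for 72 h at 37 °C, 5% CO2. Viability was read by Alamar Blue fluorescence (ex 536/em 588 nm) after a further 2-4 h.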
# [2] = tested on: Trypanosoma brucei rhodesiense STIB 900 strain; experiment: Trypanosoma brucei rhodesiense STIB 900 screening assay; conditions: 72 h
# Summary of the method: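 Bloodstream forms of T. b. rhodesiense STIB 900 (10^4 per well) cultured with seven 3-fold drug dilutions (90 to 0.123 μg/mL) in MEM with 15% horse serum, 72 h, 37 °C, 5% CO2. Alamar Blue added for 2-4 h more; fluorescence read at ex 536/em 588 nm for IC50.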
# [3] = tested on: L. infantum MHOM/MA(BE)/67 amastigotes in primary peritoneal mouse macrophages; experiment: Leishmania infantum intracellular amastigote assay in mouse macrophages; conditions: Macrophage, 120 h; for pIC50: amastigotes in primary peritoneal mouse macrophages, 5 d, Giemsa staining, read-out: Inhibition of Organism Growth in Leishmania infantum MHOM/MA/BE/67, 5 d; for IC50: read-out: Inhibition of Organism Growth in Leishmania infantum MHOM/MA/BE/67, 5 d [uM]
# Summary of the method: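 Amastigotes harvested from infected hamster spleen infected primary peritoneal mouse macrophages (5×10^5 amastigotes/well, 2 h, 37 °C). Compounds then present 5 d at 37 °C, 5% CO2. Parasite burden counted by microscopy after Giemsa staining, as % of untreated controls; IC50 from sigmoidal variable-slope fit.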
# [4] = tested on: bloodstream-form trypanosome T. brucei brucei 427 strain; experiment: Trypanosoma brucei brucei high-throughput screening assay (resazurin); conditions: for pIC50: bloodstream form, 72 hrs incubation, resazurin, read-out: IC50: I Org. Growth T. brucei brucei SBRI 427, 3 d; for IC50: 72 h, read-out: IC50: I Org. Growth T. brucei brucei SBRI 427, 3 d [uM]
# Protocol: Example 105. Trypanosoma brucei brucei High-Throughput Screening Assay Procedure
# All experiments were conducted with the bloodstream-form trypanosome T. brucei brucei 427 strain obtained from Seattle Biomedical Research Institute (Seattle, Wash.). Parasites were cultured in T-25 vented cap flasks and kept in humidified incubators at 37° C. and 5% CO2. The parasite culture media was complete HMI-9 medium containing 10% FBS, 10% Serum Plus medium and penicillin/streptomycin. To ensure log growth phase, trypanosomes were sub-cultured at appropriate dilutions every 2-3 days. Approximately 50 microliters of log phase cultures were diluted 1:10 in HMI-9 and 10 μL of the diluted culture was removed and counted using a hemocytometer to determine parasite concentration. Parasites were diluted by addition of an appropriate volume of HMI-9 to achieve a final parasite concentration of 2×10^5/mL. Compounds of the invention to be tested were serially diluted in DMSO and 0.5 μL added to 49.5 μL HMI-9 in triplicate 96-well plates using a Biomek NX liquid handler. Parasites from the diluted stock were added to each well (50 μL) using a Multidrop 384 dispenser to give a final concentration of 1.0×10^5/ml parasites in […] for DMSO. Trypanosomes were incubated with compounds for 72 hrs at 37° C. with 5% CO2. Resazurin (20 μL of 12.5 mg/ml stock) from Sigma-Aldrich was added to each well and plates were incubated for an additional 2-4 hrs. Assay plates were read using an EnVision plate reader at an excitation wavelength of 544 nm and emission of 590 nm. Triplicate data points were averaged to generate sigmoidal dose response curve and determine IC50 values using XLfit curve fitting software from IDBS (Guildford, UK).
# [5] = STIB 900 bloodstream forms, Alamar Blue, protocol of Example 114, read-out: Swiss TPH T b rhodesiense IC50
# [6] = read-out: Swiss TPH T b rhodesiense IC50
SMILES,pIC50 [1],"pIC50 [2, 5]",pIC50 [3],pIC50 [4],IC50 [4] [µM],IC50 [1] [µM],"pIC50 [2, 6]",IC50 [3] [µM]
"O=C(Nc1ccc2c(c1)B(O)OC2)c1nnn(-c2cccc(F)c2)c1C(F)(F)F [Example 69, 1-(3-Fluorophenyl)-N-(1-hydroxy-1,3-dihydrobenzo[c][1,2]oxaborol-6-yl)-5-(trifluoromethyl)-1H-1,2,3-triazole-4-carboxamide]",6.52 to 7.00,6.60 to 7.00,> 5.52,,,,,
"O=C(Nc1ccc2c(c1)B(O)OC2)c1cn(-c2ccc(F)cc2)nn1 [Example 60, 1-(4-Fluorophenyl)-N-(1-hydroxy-1,3-dihydrobenzo[c][1,2]oxaborol-6-yl)-1H-1,2,3-triazole-4-carboxamide]",,> 7.00,> 5.52,6.82 to 7.12,,,,
"Cc1c(C(=O)Nc2ccc3c(c2)B(O)OC3)nnn1-c1cccnc1 [Example 93, N-(1-hydroxy-1,3-dihydrobenzo[c][1,2]oxaborol-6-yl)-5-methyl-1-(pyridin-3-yl)-1H-1,2,3-triazole-4-carboxamide]",5.00 to 6.51,5.70 to 6.59,4.00 to 4.70,,,,,
"O=C(Nc1ccc2c(c1)B(O)OC2)c1nnn(-c2ccc(F)cc2)c1C(F)(F)F [Example 70, 1-(4-Fluorophenyl)-N-(1-hydroxy-1,3-dihydrobenzo[c][1,2]oxaborol-6-yl)-5-(trifluoromethyl)-1H-1,2,3-triazole-4-carboxamide]",5.00 to 6.51,6.60 to 7.00,> 5.52,,,,,
"O=C(Nc1ccc2c(c1)B(O)OC2)c1nnn(-c2ccccc2)c1C(F)(F)F [Example 68, N-(1-hydroxy-1,3-dihydrobenzo[c][1,2]oxaborol-6-yl)-1-phenyl-5-(trifluoromethyl)-1H-1,2,3-triazole-4-carboxamide]",,,,,0.151 to 10,< 0.1,> 7.00,< 3
"Cc1c(C(=O)Nc2ccc3c(c2)B(O)OC3)nnn1-c1ccccn1 [Example 84, N-(1-hydroxy-1,3-dihydrobenzo[c][1,2]oxaborol-6-yl)-5-methyl-1-(pyridin-2-yl)-1H-1,2,3-triazole-4-carboxamide]",> 7.00,,> 5.52,> 7.12,,,,
"O=C(Nc1ccc2c(c1)B(O)OC2)c1cn(-c2ccccn2)nn1 [Example 61, N-(1-hydroxy-1,3-dihydrobenzo[c][1,2]oxaborol-6-yl)-1-(pyridin-2-yl)-1H-1,2,3-triazole-4-carboxamide]",> 7.00,6.60 to 7.00,> 5.52,> 7.12,,,,
"O=C(Nc1ccc2c(c1)B(O)OC2)c1nnn(-c2ccccc2F)c1C(F)(F)F [Example 67, 1-(2-Fluorophenyl)-N-(1-hydroxy-1,3-dihydrobenzo[c][1,2]oxaborol-6-yl)-5-(trifluoromethyl)-1H-1,2,3-triazole-4-carboxamide]",6.52 to 7.00,6.60 to 7.00,4.00 to 4.70,,,,,
"COc1ccc(-n2nnc(C(=O)Nc3ccc4c(c3)B(O)OC4)c2C)cc1 [Example 91, N-(1-hydroxy-1,3-dihydrobenzo[c][1,2]oxaborol-6-yl)-1-(4-methoxyphenyl)-5-methyl-1H-1,2,3-triazole-4-carboxamide]",,,,> 7.12,,,,
"Cc1c(C(=O)Nc2ccc3c(c2)B(O)OC3)nnn1-c1ccccc1 [Example 89, A-(1-hydroxy-1,3-dihydrobenzo[c][1,2]oxaborol-6-yl)-5-methyl-1-phenyl-1H-1,2,3-triazole-4-carboxamide]",,,,,< 0.075,< 0.1,> 7.00,20 to 100
"O=C(Nc1ccc2c(c1)B(O)OC2)c1nnn(-c2cccnc2)c1C(F)(F)F [Example 71, N-(1-hydroxy-1,3-dihydrobenzo[c][1,2]oxaborol-6-yl)-1-(pyridin-3-yl)-5-(trifluoromethyl)-1H-1,2,3-triazole-4-carboxamide]",6.52 to 7.00,6.60 to 7.00,> 5.52,,,,,
